Where two headings read alike, the source gives them in different places.
Legend:
[1] = tested on: HeLa human cervical tumor cells; test: HeLa cell proliferation assay (crystal violet); assay type: cell-based; details: 96 h, 4 days incubation, read-out: Inhibition of cell proliferation, cell Line: HeLa IC50
human kinase Mps-1 = human kinase Mps-1 (Homo sapiens (Human), UniProt P33981); test: Mps-1 kinase assay (TR-FRET); assay type: biochemical
[2] = Metabolic stability in vitro, rat liver microsomes (calculation of Fmax); assay type: in vitro ADME; details: maximal oral bioavailability calculated from microsomal half-life, 1 μM
Method: (§1) The metabolic stability of test compounds in vitro was determined by incubating them at 1 μM with a suspension liver microsomes in 100 mM phosphate buffer, pH7.4 (NaH2PO4×H2O+Na2HPO4×2H2O) at a protein concentration of 0.5 mg/mL and at 37° C. The reaction was activated by adding a co-factor mix containing 1.2 mg NADP, 3 IU glucose-6-phosphate dehydrogenase, 14.6 mg glucose-6-phosphate and 4.9 mg MgCl2 in phosphate buffer, pH 7.4. Organic solvent in the incubations was limited to <0.2% dimethylsulfoxide (DMSO) and <1% methanol. During incubation, the microsomal suspensions were continuously shaken and aliquots were taken at 2, 8, 16, 30, 45 and 60 min, to which equal volumes of cold methanol were immediately added. Samples were frozen at −20° C. over night, subsequently centrifuged for 15 minutes at 3000 rpm and the supernatant was analyzed with an Agilent 1200 HPLC-system with LCMS/MS detection.
(§2) The half-life of a test compound was determined from the concentration-time plot. From the half-life the intrinsic clearances were calculated. Together with the additional parameters liver blood flow, specific liver weight and microsomal protein content the hepatic in vivo blood clearance (CL) and the maximal oral bioavailability (Fmax) were calculated for the different species. The following parameter values were used: Liver blood flow—1.3 L/h/kg (human), 2.1 L/h/kg (dog), 4.2 L/h/kg (rat); specific liver weight—21 g/kg (human), 39 g/kg (dog), 32 g/kg (rat); microsomal protein content—40 mg/g.
(§3) With the described assay only phase-I metabolism of microsomes is reflected, e.g. typically oxidoreductive reactions by cytochrome P450 enzymes and flavin mono-oxygenases (FMO) and hydrolytic reactions by esterases (esters and amides).

[3] = Metabolic stability in vitro, human liver microsomes (calculation of Fmax); assay type: in vitro ADME; details: maximal oral bioavailability calculated from microsomal half-life, 1 μM
Method: as §1, §2, §3

[4] = Metabolic stability in vitro, dog liver microsomes (calculation of Fmax); assay type: in vitro ADME; details: maximal oral bioavailability calculated from microsomal half-life, 1 μM
Method: as §1, §2, §3

[5] = read-out: Mps-1 Inhibition, IC50 (Assay with 10 μM ATP), 10 μM ATP
[6] = read-out: Mps-1 Inhibition, IC50 (Assay with 2 mM ATP), 2 mM ATP

Chain of human kinase Mps-1 (P33981 whole entry): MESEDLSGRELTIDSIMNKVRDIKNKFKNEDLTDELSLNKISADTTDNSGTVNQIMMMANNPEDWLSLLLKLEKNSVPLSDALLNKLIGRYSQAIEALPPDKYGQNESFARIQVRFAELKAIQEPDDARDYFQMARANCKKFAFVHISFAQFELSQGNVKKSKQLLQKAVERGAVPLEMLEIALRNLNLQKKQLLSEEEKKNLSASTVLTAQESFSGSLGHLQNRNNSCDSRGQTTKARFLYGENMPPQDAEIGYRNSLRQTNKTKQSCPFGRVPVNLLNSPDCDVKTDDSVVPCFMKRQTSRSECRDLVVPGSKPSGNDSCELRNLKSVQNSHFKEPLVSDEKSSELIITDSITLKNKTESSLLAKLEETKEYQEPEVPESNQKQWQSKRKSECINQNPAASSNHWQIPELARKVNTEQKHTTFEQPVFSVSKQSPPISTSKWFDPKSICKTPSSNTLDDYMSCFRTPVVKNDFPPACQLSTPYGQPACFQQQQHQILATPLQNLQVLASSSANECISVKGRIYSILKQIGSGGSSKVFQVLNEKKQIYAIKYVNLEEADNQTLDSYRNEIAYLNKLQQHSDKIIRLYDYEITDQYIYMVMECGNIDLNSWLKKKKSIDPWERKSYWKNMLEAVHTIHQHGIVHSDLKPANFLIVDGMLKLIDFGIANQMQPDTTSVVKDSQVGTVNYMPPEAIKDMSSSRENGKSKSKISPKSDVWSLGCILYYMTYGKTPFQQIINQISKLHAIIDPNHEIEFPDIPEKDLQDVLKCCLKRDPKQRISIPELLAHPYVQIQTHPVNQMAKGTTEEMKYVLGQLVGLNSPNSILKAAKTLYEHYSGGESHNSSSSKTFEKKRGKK

IC50 [1] [nM]	IC50 (human kinase Mps-1; 2 mM ATP) [nM]	IC50 (human kinase Mps-1; [5]) [nM]	Rat liver microsomes; Fmax [%] [2] [%]	Human liver microsomes; Fmax [%] [3] [%]	Dog liver microsomes; Fmax [%] [4] [%]	IC50 (human kinase Mps-1; [6]) [nM]	SMILES
< 200	1.1	< 1	>95	>95	>95	–	CS(=O)(=O)c1ccc(Nc2nc3ccc(-c4ccc(NC(=O)C(CO)c5ccc(F)cc5)cc4)cn3n2)c(OCC(F)(F)F)c1 (single isomer, unassigned) [Example01.10, (−)-2-(4-fluorophenyl)-3-hydroxy-N-[4-(2-{[4-(methylsulfonyl)-2-(2,2,2-tri-fluoroethoxy)phenyl]amino}[1,2,4]triazolo[1,5-a]pyridin-6-yl)phenyl]-propanamide]
< 600	–	< 1	86	68	73	< 1	CCOc1cc(S(C)(=O)=O)ccc1Nc1nc2ccc(-c3ccc(NC(=O)[C@H](C)c4ccc(F)cc4)cc3)cn2n1 [Example01.02, (2R)—N-[4-(2-{[2-ethoxy-4-(methylsulfonyl)phenyl]amino}[1,2,4]-triazolo[1,5-a]pyridin-6-yl)phenyl]-2-(4-fluorophenyl)propanamide]
< 100	1.2	< 1	>95	>95	89	–	COc1cc(C(N)=O)ccc1Nc1nc2ccc(-c3ccc(NC(=O)[C@H](C)c4ccc(F)cc4)cc3)cn2n1 [Example01.05]
< 100	1.5	< 1	94	>95	81	–	C[C@@H](C(=O)Nc1ccc(-c2ccc3nc(Nc4ccc(C(N)=O)cc4OCC(F)(F)F)nn3c2)cc1)c1ccc(F)cc1 [Example01.06, 4-{[6-(4-{[(2R)-2-(4-fluorophenyl)propanoyl]amino}phenyl)[1,2,4]triazolo-[1,5-a]pyridin-2-yl]amino}-3-(2,2,2-trifluoroethoxyl)benzamide]
–	–	< 1	74	62	75	< 1	COc1cc(C(=O)N2CCC2)ccc1Nc1nc2ccc(-c3ccc(NC(=O)[C@H](C)c4ccc(F)cc4)cc3)cn2n1 [Example01.08, (2R)—N-[4-(2-{[4-(azetidin-1-ylcarbonyl)-2-methoxyphenyl]amino}[1,2,4]-triazolo[1,5-a]pyridin-6-yl)phenyl]-2-(4-fluorophenyl)propanamide]
< 600	9	< 1	92	76	75	–	COc1cc(S(C)(=O)=O)ccc1Nc1nc2ccc(-c3ccc(NC(=O)[C@H](N)c4ccc(F)cc4)cc3)cn2n1 [Example01.11, (2R)-2-amino-2-(4-fluorophenyl)-N-[4-(2-{[2-methoxy-4-(methylsulfonyl)-phenyl]amino}[1,2,4]triazolo[1,5-a]pyridin-6-yl)phenyl]ethanamide]
–	–	< 1	93	>95	55	< 1	C[C@@H](C(=O)Nc1ccc(-c2ccc3nc(Nc4ccc(S(C)(=O)=O)cc4OCC(F)(F)F)nn3c2)cc1)c1ccc(F)cc1 [Example 01.03, (2R)-2-(4-fluorophenyl)-N-[4-(2-{[4-(methylsulfonyl)-2-(2,2,2-trifluoro-ethoxy)phenyl]amino}[1,2,4]triazolo[1,5-a]pyridin-6-yl)phenyl]-propanamide]
< 400	2	< 1	87	>95	94	–	COc1cc(C(=O)NCC(F)(F)F)ccc1Nc1nc2ccc(-c3ccc(NC(=O)[C@H](C)c4ccc(F)cc4)cc3)cn2n1 [Example 01.04, 4-{[6-(4-{[(2R)-2-(4-fluorophenyl)propanoyl]amino}phenyl)[1,2,4]-triazolo[1,5-a]pyridin-2-yl]amino}-3-methoxy-N-(2,2,2-trifluoro-ethyl)benzamide]
–	–	–	83	>95	86	–	COc1cc(C(=O)N2CC(F)C2)ccc1Nc1nc2ccc(-c3ccc(NC(=O)[C@H](C)c4ccc(F)cc4)cc3)cn2n1 [Example 01.07, (2R)-N-{4-[2-({4-[(3-fluoroazetidin-1-yl)carbonyl]-2-methoxyphenyl}amino)-[1,2,4]triazolo[1,5-a]pyridin-6-yl]phenyl}-2-(4-fluorophenyl)propanamide]
–	–	–	–	–	15	–	N#Cc1c(F)cccc1Nc1nc2ccc(-c3ccc(NC(=O)Cc4ccc(F)cc4)cc3)cn2n1 [reference compound]
–	–	–	40	–	–	–	COc1ccccc1Nc1nc2ccc(-c3ccc(NC(=O)Cc4ccccc4)cc3)cn2n1 [reference compound]
–	–	–	40	–	–	–	N#Cc1ccccc1Nc1nc2ccc(-c3ccc(NC(=O)Cc4ccc(F)cc4)cc3)cn2n1 [reference compound]
–	–	–	19	–	–	–	COC(C(=O)Nc1ccc(-c2ccc3nc(Nc4ccccc4C#N)nn3c2)cc1)c1ccccc1 (centres unmarked) [reference compound]
–	–	–	27	–	–	–	N#Cc1ccccc1Nc1nc2ccc(-c3ccc(NC(=O)C(F)(F)c4ccccc4)cc3)cn2n1 [reference compound]
–	–	–	26	–	–	–	N#Cc1ccccc1Nc1nc2ccc(-c3ccc(NC(=O)C(F)c4ccccc4)cc3)cn2n1 (centres unmarked) [reference compound]
–	–	–	48	–	–	–	COc1cc(C(=O)N2CCOCC2)ccc1Nc1nc2ccc(-c3ccc(NC(=O)Cc4ccc(F)cc4)cc3)cn2n1 [reference compound]
–	–	–	–	–	12	–	CCOc1cc(S(C)(=O)=O)ccc1Nc1nc2ccc(-c3ccc(C(=O)NCc4ccc(F)cc4)c(C)c3)cn2n1 [reference compound]
–	–	–	–	–	40	–	COc1cc(C(=O)NCC(F)(F)F)ccc1Nc1nc2ccc(-c3ccc(NC(=O)Cc4ccc(F)cc4)cc3)cn2n1 [reference compound]
–	–	–	–	–	17	–	COc1cc(N2CCOC2=O)ccc1Nc1nc2ccc(-c3ccc(NC(=O)Cc4ccc(F)cc4)cc3)cn2n1 [reference compound]
–	–	–	–	–	10	–	COc1cc(S(C)(=O)=O)ccc1Nc1nc2ccc(-c3ccc(NC(=O)Cc4ccc(F)cc4)cc3)cn2n1 [reference compound]
–	–	–	–	–	25	–	CS(=O)(=O)c1ccc(Nc2nc3ccc(-c4ccc(NC(=O)Cc5ccc(F)cc5)cc4)cn3n2)c(OCC(F)(F)F)c1 [reference compound]

SMILES	IC50 [1] [nM]	IC50 (human kinase Mps-1; 2 mM ATP) [nM]	IC50 (human kinase Mps-1; [5]) [nM]	Rat liver microsomes; Fmax [%] [2] [%]	Human liver microsomes; Fmax [%] [3] [%]	Dog liver microsomes; Fmax [%] [4] [%]	IC50 (human kinase Mps-1; [6]) [nM]
COc1cc(S(C)(=O)=O)ccc1Nc1nc2ccc(-c3ccc(NC(=O)[C@H](C)c4ccc(F)cc4)cc3)cn2n1 [Example 01.01, (2R)-2-(4-fluorophenyl)-N-[4-(2-{[2-methoxy-4-(methylsulfonyl)phenyl]-amino}[1,2,4]triazolo[1,5-a]pyridin-6-yl)phenyl]propanamide]	< 400	–	–	92	92	64	–
COc1cc(N2CCOC2=O)ccc1Nc1nc2ccc(-c3ccc(NC(=O)[C@H](C)c4ccc(F)cc4)cc3)cn2n1 [Example 01.09, (2R)-2-(4-fluorophenyl)-N-[4-(2-{[2-methoxy-4-(2-oxo-1,3-oxazolidin-3-yl)phenyl]amino}[1,2,4]triazolo[1,5-a]pyridin-6-yl)phenyl]propanamide]	–	–	–	58	49	48	–
